Assay results reported in ChEMBL document CHEMBL3885861, “Open TG-GATES”.

Species: Rattus norvegicus
Experiment: Open TG-GATES - Regimen: Single
Assay type: toxicity, organism-based, Sprague-Dawley
Set-up: regimen Single, gender Male, age 6 weeks
Conditions: in vivo, po, 100 mg/kg, route gavage, dose level Middle; for APTT / Bas / Eos / Fbg / Hb / Ht / Lym / MCHC / MCV / Mono / Neu / PT / Plat / RBC / Ret / WBC: tissue Blood; for KIDNEY_L / KIDNEY_R / KIDNEY_TOTAL: tissue Kidney; for LIVER: tissue Liver; for ALP / ALT / AST / BUN / CRE / Ca / Cl / DBIL / GLC / IP / K / LDH / Na / PL / RALB / TBIL / TC / TG / TP / gamma-GTP: tissue Plasma

## CS(=O)(=O)Nc1ccc([N+](=O)[O-])cc1Oc1ccccc1 [NIMESULIDE]
3 h
  TERMINAL_BW: 203.6 g
  APTT: 16.7 s
  Bas: 0%
  Eos: 1.2%
  Fbg: 201.6 mg/dL
  Hb: 13.1 g/dL
  Ht: 38.3%
  Lym: 71.4%
  MCHC: 34.3%
  MCV: 65.8 fL
  Mono: 8.2%
  Neu: 19.2%
  PT: 12.2 s
  Plat: 110 x10_4/uL
  RBC: 582.2 x10_4/ul
  Ret: 11.3%
  WBC: 87.9 x10_2/uL
  KIDNEY_L: 0.9 g
  KIDNEY_R: 0.9 g
  KIDNEY_TOTAL: 1.8 g
  LIVER: 9.5 g
  ALP: 901.6 IU/L
  ALT: 36.2 IU/L
  AST: 66.6 IU/L
  BUN: 14 mg/dL
  CRE: 0.6 mg/dL
  Ca: 11 mg/dL
  Cl: 105.8 meq/L
  DBIL: 0.06 mg/dL
  GLC: 233.2 mg/dL
  IP: 9.6 mg/dL
  K: 5 meq/L
  LDH: 93.8 IU/L
  Na: 140.2 meq/L
  PL: 145.4 mg/dL
  RALB: 3.9 g/dL
  TBIL: 0.4 mg/dL
  TC: 85.2 mg/dL
  TG: 54.8 mg/dL
  TP: 5.2 g/dL
  gamma-GTP: 1 IU/L
6 h
  TERMINAL_BW: 202.6 g
  APTT: 18.2 s
  Bas: 0%
  Eos: 1%
  Fbg: 211.2 mg/dL
  Hb: 13.2 g/dL
  Ht: 39.2%
  Lym: 73.2%
  MCHC: 33.6%
  MCV: 65.7 fL
  Mono: 4.4%
  Neu: 21.8%
  PT: 12.4 s
  Plat: 119.2 x10_4/uL
  RBC: 596.6 x10_4/ul
  Ret: 9%
  WBC: 69.4 x10_2/uL
  KIDNEY_L: 0.9 g
  KIDNEY_R: 1 g
  KIDNEY_TOTAL: 1.9 g
  LIVER: 8.6 g
  ALP: 733.2 IU/L
  ALT: 36.4 IU/L
  AST: 67.2 IU/L
  BUN: 14.8 mg/dL
  CRE: 0.7 mg/dL
  Ca: 10.5 mg/dL
  Cl: 103.4 meq/L
  DBIL: 0.072 mg/dL
  GLC: 258 mg/dL
  IP: 10.4 mg/dL
  K: 4.3 meq/L
  LDH: 79.6 IU/L
  Na: 139.8 meq/L
  PL: 132.8 mg/dL
  RALB: 3.7 g/dL
  TBIL: 0.5 mg/dL
  TC: 79.8 mg/dL
  TG: 28 mg/dL
  TP: 5.3 g/dL
  gamma-GTP: 1.6 IU/L
9 h
  TERMINAL_BW: 194.5 g
  APTT: 19.5 s
  Bas: 0%
  Eos: 0.6%
  Fbg: 214.8 mg/dL
  Hb: 13.6 g/dL
  Ht: 40.6%
  Lym: 79.2%
  MCHC: 33.5%
  MCV: 65.2 fL
  Mono: 6%
  Neu: 14.4%
  PT: 12.5 s
  Plat: 117.1 x10_4/uL
  RBC: 621.8 x10_4/ul
  Ret: 11.2%
  WBC: 80.5 x10_2/uL
  KIDNEY_L: 0.9 g
  KIDNEY_R: 0.9 g
  KIDNEY_TOTAL: 1.8 g
  LIVER: 7.9 g
  ALP: 917.4 IU/L
  ALT: 32.8 IU/L
  AST: 62.4 IU/L
  BUN: 12.6 mg/dL
  CRE: 0.6 mg/dL
  Ca: 10.6 mg/dL
  Cl: 107.2 meq/L
  DBIL: 0.018 mg/dL
  GLC: 234 mg/dL
  IP: 9.5 mg/dL
  K: 5 meq/L
  LDH: 72 IU/L
  Na: 138.2 meq/L
  PL: 137.8 mg/dL
  RALB: 4 g/dL
  TBIL: 0.4 mg/dL
  TC: 77.8 mg/dL
  TG: 28.6 mg/dL
  TP: 5.4 g/dL
  gamma-GTP: 1 IU/L
24 h
  TERMINAL_BW: 205.9 g
  APTT: 17.2 s
  Bas: 0%
  Eos: 1%
  Fbg: 216.6 mg/dL
  Hb: 13.8 g/dL
  Ht: 40.7%
  Lym: 69%
  MCHC: 33.7%
  MCV: 64.1 fL
  Mono: 6.8%
  Neu: 23.4%
  PT: 12 s
  Plat: 116.2 x10_4/uL
  RBC: 636.2 x10_4/ul
  Ret: 10%
  WBC: 104.6 x10_2/uL
  KIDNEY_L: 0.9 g
  KIDNEY_R: 0.9 g
  KIDNEY_TOTAL: 1.9 g
  LIVER: 10.2 g
  ALP: 976.6 IU/L
  ALT: 37.2 IU/L
  AST: 66.8 IU/L
  BUN: 20.8 mg/dL
  CRE: 0.6 mg/dL
  Ca: 10.7 mg/dL
  Cl: 106.6 meq/L
  DBIL: 0.024 mg/dL
  GLC: 185.6 mg/dL
  IP: 6.6 mg/dL
  K: 4.9 meq/L
  LDH: 105.6 IU/L
  Na: 140.4 meq/L
  PL: 148 mg/dL
  RALB: 3.9 g/dL
  TBIL: 0.3 mg/dL
  TC: 81.6 mg/dL
  TG: 110.6 mg/dL
  TP: 5.4 g/dL
  gamma-GTP: 1.8 IU/L
